From publication PMC11878344 (Angewandte Chemie (International Ed. in English), 2025)

How the values were obtained:
[1] = system: primary hippocampal neurons; assay: Confocal imaging of live primary hippocampal neuron cultures; format: cell-based, mouse; conditions: inhibitor 10 μM, 2 h before labeling; p <0.01
Description: MAGL plays a vital role in neuronal inflammation[24, 66, 67] and the integrity of the blood–brain barrier.[68, 69] Therefore, we investigated the imaging capability of the probes in live dissociated primary hippocampal neuron cultures (Figure 6 C) as a prime model system in CNS research, particularly in the context of its role in shaping neurotransmitter release and synaptic plasticity properties.[70] Confocal microscopic imaging of the live cultures, at day 14–21 in vitro, was performed on cells treated with probe 9 (1 μM) and the particularly bright silicon‐rhodamine (SiR) probes 10 and 12 (0.5 μM) at 37 °C for 15 min, all of them producing a strong fluorescent signal. […] We observed an accumulation of the fluorescent signal in neuronal varicosities with a distribution that is reminiscent of that of synapses, indicating the localization of MAGL.
Hippocampal Neurons Staining
Preparation of primary neuron cultures. For neuron culture, glass coverslips (19 mm, #1.5
Epredia Deckgläser, CB00190RAC20MNZ0) were coated with PLL (Sigma-Aldrich, P4707; 1:12
dilution) in phosphate-buffered saline (PBS) for 2h at 37 °C. Hippocampal neurons were then […]
microscope for a maximum of 30 min. Images were then analyzed using FIJI. […]
analysis. The protein was analyzed using a Waters H-class instrument equipped with a quaternary […]

[2] = system: HT-29 cells; assay: Confocal live cell imaging of HT-29 cells; format: cell-based; conditions: inhibitor 10 μM; probe 9 0.15 μM
Text: The enzymatic activity of MAGL plays a critical role in cancer lipid metabolism and is overexpressed in several particularly aggressive cancer cell lines.[56] Therefore, the expression levels of MAGL are considered a prognostic biomarker for the degree of cancer tumor differentiation and progression.[57] Here the colon cancer HT‐29 cell line is one of the prototypical systems regarding the impact of MAGL in proliferating and invasive cancer.[45, 58, 59] We studied the ability of probes 8–12 to detect MAGL by confocal imaging microscopy (Figure 6 A). Consistent staining of MAGL could be achieved with all optimized probes 8–12 carrying NBD, BODIPY, and SiR, respectively, providing a bright and stable fluorescent signal in live cancer cells. […]
For ABPP experiments, cell lysates containing equal amounts of protein were incubated with the appropriate concentration of activity-based probe for 30 min at room temperature. […] Samples were then separated by SDS-PAGE and bands were detected ChemiDoc Imager (Bio-Rad Laboratories). […] Gels were imaged and protein bands were quantified using Image Lab software (Bio-Rad Laboratories).
Fluorescence confocal microscopy. […]
Confocal live cell image acquisition. […] The probe fluorescence was monitored by kinetic measurements of 10 min with a break for probe administration. The fluorescence of one image per sample was captured at each time point. […]

[3] = system: MAGL; design: method as in PMID 35089028, PMID 34764251, PMID 34328319, PMID 29498843; conditions: known MAGL ligands of Figure 1; cited from earlier work

For O=C(OC(CO)C(F)(F)F)N1CC2C(C1)C2c1ccn(-c2ccc(F)cc2)n1 (stereo not drawn) [PF-06795071], the “Effect of pre-incubation on MAGL probe labeling” value [1] is listed as “strong decrease in mean fluorescent intensity”, the “Effect of pre-incubation on probe 9 fluorescent signal” value [2] is listed as “completely suppressed the fluorescent signal” and the IC50 [3] is listed as 3 nM.
